Results reported in US20250228879A1, “METHOD AND COMPOSITION FOR CONTROLLING ACNE USING RHAMNOLIPIDS” (Stepan Company, priority 2022, published 2025).
Marks after values point to notes of the source that are not given here.

Legend:
C. acnes = assay: Labskin efficacy of rhamnolipids compared to salicylic acid and benzoyl peroxide (Example 5); type: cell-based, Cutibacterium acnes
Description: A study was conducted to compare the efficacy of the rhamnolipid mixture of the present technology with salicylic acid and benzoyl peroxide, two common over-the-counter anti-acne actives. The samples containing salicylic acid and benzoyl peroxide were additionally mixed using a tip sonicator to ensure complete dissolving or adequeate distribution of the active.
The skin analog substrate (Labskin) was prepared as described in Example 4. The C. acnes microorganism was cultured as described in Example 4, and each Labskin unit was inoculated as described in Example 4. The Labskin units were incubated at 37° C. for 24 hours, and after 24 hours, were treated with 11 microliters of control (dPBS), vehicle, or test item. All Labskin units were then incubated at 37° C. for 24 hours, after which biopsy samples of 8 mm in diameter were aseptically removed from the center of each Labskin unit and viable microbial numbers were assayed by recovery on appropriate culture medium.
Technical replicate counts obtained from selective solid media were averaged and used to calculate the colony forming units per square cm (CFU cm^−2). The enumeration of C. acnes for the control, vehicle, and test samples is shown graphically in FIG. 4.
The Log10 difference between the dPBS control and the vehicle and test samples was calculated as described in Example 4, and the Logio difference results are shown graphically in FIG. 5.

[1] = test system: Cutibacterium acnes (ATCC #6919); assay: Time-dependency comparative testing, flow cytometry viability (Example 6); type: cell-based
Description: A study was conducted to compare the time-dependent efficacy of a rhamnolipid mixture of the present technology (Example 6 Composition), a commercially available rhamnolipid product (Comparative Composition), and salicylic acid against Cutibacterium acnes (ATCC #6919). […] The Comparative Composition comprised a mixture of rhamnolipids having a mono-rhamnolipid: di-rhamnolipid ratio of about 4:96 Test samples were prepared by diluting the rhamnolipids and the salicylic acid in sterile water. […] The concentrations of salicylic acid actives in the test samples were 0.03 wt %, 0.1 wt %, and 0.3 wt %. Prior to initiation of the study, samples were sufficiently pre-reduced to remove oxygen by using an indirect atmospheric sequestering of oxygen using hydrogen reaction over palladium catalyst. […] The sample aliquots were neutralized by dilution in an oxygen-reducing buffer containing the flow cytometry dyes, SYTO 9 and Propidium Iodide. Samples were analyzed using flow cytometry where cells were characterized by morphology and viability in comparison to a deionized water control.

[2] = water at 25° C.; cited from earlier work
C. acnes ATCC 6919 = assay: Efficacy against C. acnes, aqueous test samples (Example 1); type: cell-based, Cutibacterium acnes; conditions: Tested Conc. 0.3%, pH 2.7
Description: A study was conducted to determine the antimicrobial activity of a rhamnolipid mixture of the present technology alone against C. acnes, available from American Type Culture Collection (ATCC), Manassas, VA as ATCC 6919. Test samples were prepared by mixing 6.0% by weight of the rhamnolipid mixture into an aqueous base. Two samples were prepared, one sample using a rhamnolipid mixture processed by a non-solvent purification process, and the other sample using a rhamnolipid mixture processed by a solvent extraction process. The rhamnolipid mixtures in each sample comprise a weight ratio of mono-rhamnolipids to di-rhamnolipids in the range of 43:57 to 45:55.

[3] = 15 min Exposure, Tested Conc. 0.03%
[4] = 15 min Exposure, Tested Conc. 0.10%
[5] = 15 min Exposure, Tested Conc. 0.30%
[6] = 60 min Exposure, Tested Conc. 0.03%
[7] = 60 min Exposure, Tested Conc. 0.10%
[8] = 60 min Exposure, Tested Conc. 0.30%

SMILES: O=C(OOC(=O)c1ccccc1)c1ccccc1 [benzoyl peroxide]
- Log10 difference of C. acnes vs dPBS control (FIG. 5) (C. acnes; benzoyl peroxide alone (5% and 2.5% w/w) in 20% w/w Tween in dPBS): significant decrease in the recovered population of C. acnes

SMILES: O=C(O)c1ccccc1O [Salicylic acid in DI Water, salicylic acid]
- Enumeration of C. acnes compared with dPBS control (FIG. 4) (C. acnes; 0.5% w/w in 20% w/w Tween in dPBS, Labskin, 24 hours): slight decrease in the average amount of C. acnes
- Log10 difference of C. acnes vs dPBS control (FIG. 5) (C. acnes; 0.5% w/w salicylic acid in 20% w/w Tween in dPBS): moderate decrease in C. acnes recovered
- Log10 difference of C. acnes vs dPBS control (FIG. 5) (C. acnes; 2% w/w salicylic acid in 20% w/w Tween in dPBS): noticeable decrease in the recovered population of C. acnes
- Log10 cells/mL Reduction [1, 3]: 0.10 Log10 cells/mL
- Percent Reduction [1, 3]: 20.6%
- Log10 cells/mL Reduction [1, 4]: 0.10 Log10 cells/mL
- Percent Reduction [1, 4]: 20.6%
- Log10 cells/mL Reduction [1, 5]: 0.57 Log10 cells/mL
- Percent Reduction [1, 5]: 73.2%
- Log10 cells/mL Reduction [1, 6]: 0.35 Log10 cells/mL
- Percent Reduction [1, 6]: 55.2%
- Log10 cells/mL Reduction [1, 7]: 1.14 Log10 cells/mL
- Percent Reduction [1, 7]: 92.8%
- Log10 cells/mL Reduction [1, 8]: >2.30 Log10 cells/mL
- Percent Reduction [1, 8]: >99.5%
- solubility limit in water [2]: 0.3% *
- Reduction % (C. acnes ATCC 6919; 1 h Exposure): >99.997%
- Reduction Log10 CFU/mL (C. acnes ATCC 6919; 1 h Exposure): >4.6 Log10 CFU/mL
- Reduction % (C. acnes ATCC 6919; 24 h Exposure): >99.995%
- Reduction Log10 CFU/mL (C. acnes ATCC 6919; 24 h Exposure): >4.3 Log10 CFU/mL
